{"source": "patent US20140249105A1", "about": "“NOVEL CERAMIDE ANALOGUES, PROCESSES FOR PREPARING SAME AND USES THEREOF” (Diverchim, priority 2011, published 2014)", "key": {"[1]": {"tested_on": "Human dermal fibroblasts aged according to the Hayflick model (P17NHDF)", "test": "Proliferation of aged human dermal fibroblasts, [3H]-thymidine incorporation", "format": "cell-based", "settings": "72 hours", "protocol": "Thus, stimulation of the proliferation of the aged fibroblasts makes possible a partial reversal of the deleterious effects of ageing. • Biological model: Human dermal fibroblasts aged according to the Hayflick model (fibroblasts obtained by successive subculture) (P17NHDF) • Culture conditions: 37° C., 5% CO2 • Culture medium: DMEM/fetal calf serum (FCS) 10% • Conditions: • Control (n=6) • Control normal fibroblasts, not aged (P7 NHDF) (n=2) • Reference: EGF (Epidermal Growth Factor) at 10 ng/mL (n=2) • compounds tested (n=2) • Incubation: 72 hours • Assay: The effects on proliferation were evaluated by measuring the incorporation of [^3H]-thymidine in fibroblasts aged according to the Hayflick model. The Hayflick model consists of applying successive subcultures in order to induce an “aged” phenotype. The results are expressed in percentage stimulation of the incorporation of [^3H]-thymidine."}, "[2]": {"tested_on": "Normal human epidermal keratinocytes (NHEK)", "test": "Proliferation and/or migration of keratinocytes, artificial wound coverage", "format": "cell-based", "settings": "percentage coverage at 48 h", "protocol": "The phases of migration and proliferation of cells are major phases of healing that occur after the inflammation phase and are necessary for recolonization of the wound. An increase in the migration and proliferation of cells allows an improvement in healing. • Biological model: Normal human epidermal keratinocytes (NHEK) • Culture conditions: 37° C., 5% CO2 • Culture medium: Keratinocyte-SFM-PE-EGF (keratinocyte culture medium—serum free medium (SFM) without pituitary extract (PE) and without Epidermal Growth Factor (EGF) • Conditions: • Control (n=6) • Reference: EGF (Epidermal Growth Factor) at 10 ng/ml (n=2) • compounds tested (n=2) • Incubation: 72 hours • Assay: Normal human keratinocytes were seeded on 96-well plates suitable for the migration studies. In these plates, the substrates were pretreated with a solution of collagen and a mask was placed at the centre of each well, preventing adhesion of the cells in this zone and thus forming an artificial wound. After labelling the cells with calcein, the masks were removed and then the cells were treated with the compounds or the reference. The migration of the cells was monitored microscopically for 72 hours, taking photographs at 0 h, 24 h, 48 h and 72 h. The results are expressed in percentage coverage and compared with the untreated control."}, "[3]": {"target": "T1, tyrosinase (DOPA oxidase) (Homo sapiens, UniProt P14679)", "T1 construct": "from tissue; host or cells: separated human epidermis from a frozen abdominoplasty (melanocytes in situ)", "T1 sequence (P14679 19-529)": "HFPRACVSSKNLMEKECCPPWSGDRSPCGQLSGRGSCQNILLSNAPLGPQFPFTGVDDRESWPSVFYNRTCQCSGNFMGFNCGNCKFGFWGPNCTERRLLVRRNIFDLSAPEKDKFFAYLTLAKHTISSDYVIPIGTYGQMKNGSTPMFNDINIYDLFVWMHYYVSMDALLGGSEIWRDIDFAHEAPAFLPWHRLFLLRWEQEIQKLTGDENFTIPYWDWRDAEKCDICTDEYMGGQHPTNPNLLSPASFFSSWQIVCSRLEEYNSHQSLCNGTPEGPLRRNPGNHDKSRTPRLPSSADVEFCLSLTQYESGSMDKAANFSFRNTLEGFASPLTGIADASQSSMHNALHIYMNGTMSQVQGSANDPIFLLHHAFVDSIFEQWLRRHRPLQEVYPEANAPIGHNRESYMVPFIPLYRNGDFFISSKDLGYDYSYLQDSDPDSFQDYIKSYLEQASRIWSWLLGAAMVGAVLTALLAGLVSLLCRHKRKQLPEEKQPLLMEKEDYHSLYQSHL", "test": "Screening of anti-tyrosinase activity: DOPA oxidase reaction on separated epidermis, count of DOPA positive melanocytes per mm2", "format": "cell-based", "protocol": "The products are tested in solution at 30 μg/mL in DMSO. Epidermis samples originating from a frozen abdominoplasty (person) were separated by incubation in 2N NaBr for 1.0 h at 37° C. They were then fixed in a buffered formolized fixing agent, rinsed and put in contact with the volume/volume mixture: solutions of L-DOPA/test formulation. After incubation, they were rinsed and mounted between slide and cover slip with mounting liquid of the Aquatex type. Observation was by optical microscopy with ×10 objective. Images were obtained with a tri CCD Sony DXC […] camera and stored using the Leica IM1000 data archiving software. For each batch, several microscope fields were analysed using the LEICA QWin image analysis software. For each field, the DOPA positive melanocytes were counted and the area of the zone was measured to determine the melanocyte count per mm^2."}, "[4]": {"tested_on": "Normal human dermal fibroblasts (NHDF)", "test": "Proliferation and/or migration of fibroblasts, artificial wound coverage", "format": "cell-based", "settings": "percentage coverage at 24 h", "protocol": "An increase in migration and proliferation of the cells allows an improvement in healing. • Biological model: Normal human dermal fibroblasts (NHDF) • Culture conditions: 37° C., 5% CO2 • Culture medium: DMEM • Conditions: • Control (NHDF in DMEM test medium 0% FCS) (n=6) • Reference: FCS (Fetal Calf Serum) at 10% (n=2) • compounds tested (n=2) • Incubation: 72 hours • Assay: Normal human fibroblasts were seeded on 96-well plates suitable for the migration studies. In these plates, the substrates were pretreated with a solution of collagen and a mask was placed at the centre of each well, preventing adhesion of the cells in this zone and thus forming an artificial wound. After labelling the cells with calcein, the masks were removed and then the cells were treated with the compounds or the reference. The migration of the cells was monitored microscopically for 72 hours, taking photographs at 0 h, 24 h, 48 h and 72 h. The results are expressed in percentage coverage and compared with the untreated control."}, "[5]": {"tested_on": "B16 melanocytes", "test": "Viability of the cells, test of reduction of MTT", "format": "cell-based", "settings": "72 h", "protocol": "(§1) Melanocytes were seeded on a 96-well plate and cultured for 24 h (37° C., 5% CO2, DMEM 1 g/L glucose without phenol red supplemented with glucose 3 g/L, L-glutamine 2 mM, penicillin 50 U/mL, streptomycin 50 μg/mL, fetal calf serum (FCS) 10%). […] Each experimental condition was carried out with n=3, apart from the controls carried out with n=6. The cells were then incubated for 72 h. Wells without cells received in parallel the same quantities of medium, supplemented or not with NDP-MSH and with or without the test compounds or the reference in order to quantify the background noise associated with the presence of the compounds.\nAt the end of the treatment, the cells were incubated in the presence of MTT (3-(4,5-dimethylthiazol-2-yl)-2,5-diphenyl tetrazolium bromide), the conversion of which to blue crystals of formazan is proportional to the activity of succinate dehydrogenase (mitochondrial enzyme). After disruption of the cells, the formazan was dissolved in DMSO medium and the optical density (OD), representative of the number of live cells and of their metabolic reactivity, was measured with a microplate reader at 540 nm (VERSAmax, Molecular Devices)."}, "[6]": {"tested_on": "B16 melanocytes", "test": "Screening of anti-melanogenesis activity: melanin assay in B16 melanocytes stimulated with NDP-MSH", "format": "cell-based", "settings": "72 h", "protocol": "This was carried out for compounds in solution in DMSO. The synthesis of melanin was measured in a model of B16 melanocytes stimulated with a stable derivative of α-MSH (natural hormone that stimulates melanogenesis: Melanocyte Stimulating Hormone): NDP-MSH ([Nle^4, DPhe7]-α-MSH).\nas §1\nAt the end of 72 hours of incubation, the total melanin (intra- and extracellular) was quantified by measuring the absorbance of each sample at 405 nm (direct reading of the culture plates) against a standard range of melanin (melanin concentrations tested from 0.78 to 100 μg/mL). The background noise, measured in the wells without cells, was subtracted from the values measured so that only the effect connected with the production of melanin is taken into account, without including any interference connected with the presence of the compounds. The results were expressed in percentage of melanin relative to the control as well as in percentage inhibition."}, "[7]": {"target": "T2, human leukocyte elastase (Homo sapiens, UniProt P08246)", "T2 sequence (P08246 30-267)": "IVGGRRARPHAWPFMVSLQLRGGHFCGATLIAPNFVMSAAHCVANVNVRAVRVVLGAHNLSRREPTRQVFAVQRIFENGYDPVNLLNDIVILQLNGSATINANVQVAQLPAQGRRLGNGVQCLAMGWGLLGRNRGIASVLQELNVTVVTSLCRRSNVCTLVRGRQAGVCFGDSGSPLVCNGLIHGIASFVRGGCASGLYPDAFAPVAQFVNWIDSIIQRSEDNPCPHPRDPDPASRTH", "test": "Inhibition of leukocyte elastase (EnzChek Elastase assay kit)", "format": "biochemical", "settings": "incubation 1 hour", "source_text": "The elastases are a sub-family of serine proteases responsible for the degradation of elastin. The numerous natural substrates of this enzyme include, in addition to elastin, the proteoglycans of cartilage, fibronectin and the type I, II, III and IV collagens. At the cutaneous level, inhibition of elastase can combat the effects of ageing, whether or not photo-induced, and limit the appearance of wrinkles and stretch marks. • Biological model: human leukocyte elastase • Conditions: • Control (n=6) • Reference: AAPV (N-methoxysuccinyl-Ala-Ala-Pro-Val-chloromethyl ketone) 100 μM (n=6) • compounds tested (n=2) • Incubation: 1 hour • Assay: The activity of human leukocyte elastase was evaluated using the EnzChek® Elastase assay kit. The measurement of activity is based on the use of a fluorescent substrate (DQTM Elastin) whose fluorescence is “quenched” through the presence of “quencher” groups at the level of the lytic sites. After action of the enzyme, the “quencher” groups are released and the fluorescence emitted is proportional to the activity of the enzyme. The results are expressed in percentage inhibition of the enzyme activity."}}, "note": "* marks the point of attachment. MeOSuc = COC(=O)CCC(=O)*; CH2Cl = ClC*", "data": [{"compound": "O=C(/C=C/CCCCCCCCCCCO)N[C@H]1C[C@H]1NC(=O)/C=C/CCCCCCCCCCCO", "note": "[c7]", "values": [{"measurement": "Stimulation (%)", "setting": "[1]; 10 μM", "value": 63, "unit": "%"}]}, {"compound": "O=C(NC1CC1NC(=O)C(F)=CCCCCCCCCCCCCCCO)C(F)=CCCCCCCCCCCCCCCO", "note": "(stereo not drawn) [c42]", "values": [{"measurement": "% control 48 h", "setting": "[2]; 3 μM", "value": 141, "unit": "% control"}, {"measurement": "Stimulation (%)", "setting": "[1]; 3 μM", "value": 48, "unit": "%"}, {"measurement": "Variation/control", "setting": "[3]; DOPA positive melanocyte count per mm2 vs DOPA control, product at 30 μg/mL in DMSO", "value": "−55"}, {"measurement": "effectiveness for limiting tyrosinase activity compared with reference compounds", "setting": "[3]; vs ref 1", "value": "more effective than the reference compounds"}, {"measurement": "% control 24 h", "setting": "[4]; 3 μM", "value": 130, "unit": "% control"}]}, {"compound": "O=C(/C=C/CCCCCOC1CCCCO1)N[C@H]1CCC[C@H]1NC(=O)/C=C/CCCCCOC1CCCCO1", "note": "(stereo partly drawn) [c27]", "values": [{"measurement": "% control 24 h", "setting": "[4]; 10 μM", "value": 131, "unit": "% control"}, {"measurement": "Viability (MTT) % stimulated control", "setting": "[5]; 30 μM", "value": 89, "unit": "% stimulated control"}, {"measurement": "Viability (MTT) % stimulated control", "setting": "[5]; 100 μM", "value": 71, "unit": "% stimulated control"}, {"measurement": "inhibition at 30 µM", "setting": "[6]; Melanocyte, 30 μM, read-out: Normalized data inhibition (%)", "value": 12, "unit": "%"}, {"measurement": "inhibition at 100 µM", "setting": "[6]; Melanocyte, 100 μM, read-out: Normalized data inhibition (%)", "value": 110, "unit": "%"}]}, {"compound": "CCCCCCCCCCC/C=C(/F)C(=O)N[C@@H]1CC[C@H](NC(=O)/C(F)=C\\CCCCCCCCCCC)C1", "note": "[c85]", "values": [{"measurement": "% control 48 h", "setting": "[2]; 10 μM", "value": 176, "unit": "% control"}, {"measurement": "Stimulation (%)", "setting": "[1]; 10 μM", "value": 22, "unit": "%"}]}, {"compound": "CCCCCC=CCC=CCCCCCCCC(=O)NC1CCCC1NC(=O)CCCCCCCC=CCC=CCCCCC", "note": "(stereo not drawn) [c128]", "values": [{"measurement": "Inhibition (%)", "setting": "[7]; 30 μM", "value": 75, "unit": "%"}, {"measurement": "Normalized data inhibition (%)", "setting": "[6]; 30 μM", "value": 9, "unit": "%"}, {"measurement": "Normalized data inhibition (%)", "setting": "[6]; 100 μM", "value": 93, "unit": "%"}]}, {"compound": "N-methoxysuccinyl-Ala-Ala-Pro-Val-chloromethyl ketone (MeOSuc-AAPV-CH2Cl) [reference compound]", "values": [{"measurement": "Inhibition (%)", "setting": "[7]; 100 μM", "value": 95, "unit": "%"}]}, {"compound": "CCCCCCCCCCCCCC(=O)NC1CCC(NC(=O)CCCCCCCCCCCCC)C1", "note": "(stereo not drawn) [c132]", "values": [{"measurement": "% control 48 h", "setting": "[2]; 10 μM", "value": 138, "unit": "% control"}, {"measurement": "% control 24 h", "setting": "[4]; 10 μM", "value": 131, "unit": "% control"}]}, {"compound": "EGF: Epidermal Growth Factor, reference", "values": [{"measurement": "% control 48 h", "setting": "[2]; 10 ng/mL", "value": 161, "unit": "% control"}, {"measurement": "Stimulation (%)", "setting": "[1]; 10 ng/ml", "value": 89, "unit": "%"}]}]}
